Data taken from patent US20090093446A1, “METHOD FOR ALLEVIATING KERATOCONJUNCTIVITIS SICCA” (priority 2007, published 2009).

Key:
Format in all cases: in vivo, human
[1] = test system: patients with migraine headache; experiment: capsaicin cream applied to nasal mucosa in migraine headache; conditions: 0.025% by weight capsaicin cream to nasal mucosa
[2] = test system: patients with migraine headache disorder; experiment: intranasal capsaicin cream for acute migraine pain, two patients; conditions: 0.025% by weight capsaicin cream intranasally, both of two migraine patients
Description: Two patients with migraine headache disorder were administered 0.025% by weight capsaicin cream intranasally for acute relief of their migraine pain. Both reported increased lacrimation within 30 minutes of application of the capsaicin cream.

[3] = test system: normal volunteers; experiment: multi-dose 14 day tolerance study of civamide nasal spray; conditions: 14 days, 10 normal volunteers
[4] = test system: patients with vasomotor rhinitis (non-allergic rhinitis); experiment: double-blind placebo-controlled 2 week evaluation of civamide nasal spray in vasomotor rhinitis; conditions: 0.01% by weight civamide nasal spray, 2 weeks
From the text: Fifty-five (55) patients with vasomotor rhinitis (non-allergic rhinitis) participated in a double-blind placebo-controlled 2 week evaluation of the symptomatic relief afforded patients by 0.01% by weight civamide nasal spray or placebo nasal spray (vehicle for active product). Thirty-one percent (31%) of patients using 0.01% civamide spray reported increased tearing, while 0% of patients on placebo noted such a side effect.

[5] = test system: patients with episodic cluster headache; experiment: civamide nasal drops in episodic cluster headache; conditions: 0.025% by weight civamide nasal drops once daily for 1 week, 9 of 18 patients
From the text: In a study utilizing 0.025% by weight civamide nasal drops administered once daily for 1 week to 28 patients with episodic cluster headache (a severe form of vasomotor headache that occurs in general 4-24 week clusters), 9 of 18 patients (50%) on civamide nasal drops had increased tearing versus 0 of 10 patients (0%) on vehicle control.

[6] = test system: episodic cluster headache patients; experiment: civamide nasal spray versus inactive control in episodic cluster headache; conditions: 0.01% by weight civamide nasal spray twice daily, 36 patients

Structure (SMILES)	patients who reported increased tearing as a side effect [1]	patients who noted some relief of their headaches ([1]; 4 hours after administration)	time to reported increased lacrimation after application [2]	subjects who experienced increased lacrimation (tear production) ([3]; 0.0075% by weight civamide nasal spray twice daily)	subjects who experienced increased lacrimation (tear production) ([3]; 0.01% by weight civamide nasal spray twice daily)	subjects who experienced increased tearing ([3]; […] by weight civamide nasal spray once daily)	patients who reported increased tearing [4]	patients who had increased tearing [5]	patients who reported increased tearing [6]
COc1cc(CNC(=O)CCCC/C=C/C(C)C)ccc1O [capsaicin]	44%	73%	≤ 30 min	–	–	–	–	–	–
COc1cc(CNC(=O)CCCC/C=C\C(C)C)ccc1O [civamide, cis-8-methyl-N-vanillyle-nonenamide]	–	–	–	100%	100%	90%	31%	50%	51%
